Test results taken from paper PMC8201173, “Inhibition of Carbonic Anhydrase IX Promotes Apoptosis through Intracellular pH Level Alterations in Cervical Cancer Cells” (International Journal of Molecular Sciences, 2021).

Columns and labels:
[1] = tested on: HeLa cells; assay: γ-H2AX immunofluorescence staining (DNA damage); type: cell-based; details: 10–25–50 µM, 24 h
Procedure: HeLa cells (1 × 10^4/^mL) were seeded in 12-well cell culture plates, and after 24 h incubation, they were treated with the compound E at doses of 10–25–50 µM and incubated for 24 h. The cells were washed with PBS and fixed with 100% methanol at −20 °C overnight, which was followed by PBS washing three times for 10 min. The cells were treated with % 0.2 Triton X-100 on a shaker at room temperature for 5 min. It was washed with PBS, and 1% BSA-containing PBS was added and incubated with primary mouse monoclonal anti-γ-H2AX antibody (Cell Signalling Technology, MA, USA) at 37 °C for 1 h. The cells were washed with PBS three times for 5 min. Secondary goat anti-mouse Alexa-488-conjugated IgG (Invitrogen, CA, USA) was administrated and incubated at 37 °C for 20 min, which was followed by PBS washing three times for 4–5 min. One millilitre of 70% EtOH was added, and at +4 °C it was incubated for 5 min. One millilitre of 100% EtOH was added and, on a shaker, incubated at room temperature for 1–2 min. The nucleus was stained with DAPI. The images were recorded by Olympus Inverted fluorescence microscope (Olympus CKX 51, DP73, USA).

[2] = tested on: HeLa cells; assay: Mitochondrial membrane potential (JC-1); type: cell-based; details: JC-1 dye
Procedure: Mitochondrial membrane potential (MMP) changes were spectrophotometrically detected. MMP was measured in a fluorometry device (Spectramax M5, BioTek, VT, USA) at wavelengths of 490 nm (excitation) and 530 nm (emission) in suitable conditions according to the manufacturer protocol (Sigma-Aldrich-CS0390, Germany).

[3] = tested on: HT-29; assay: WST-1 cytotoxicity assay, HT-29; type: cell-based; details: Homo sapiens
Procedure: We used cancer and normal cell lines purchased from ATCC (American Type Culture Collection) and ECACC (European Collection of Authenticated Cell Cultures) and stored in liquid nitrogen.
The cells were planted in 96 well plates (10^4 cells per well). […] WST-1 reactive of 10 µL was added in all wells. Following 4 h incubation, the measurements were carried out in a plate reader (Spectramax M5, BioTek, VT, USA) at wavelengths of 450 and 630 nm.

[4] = tested on: HeLa cells; assay: Western blot of apoptotic proteins and CAIX; type: cell-based; details: 24 h
Procedure: The cells were seeded on 6 cm^2 cell culture dishes and treated with the compound E at doses of 10–25–50 μM, for 24 h. The cells were then washed by cold PBS, which was followed by lysis with RIPA lysis tampon (10 mM Tris-HC1 pH:8.1 mM EDTA, 1 mM EGTA, 140 mM NaCl, 1% TritonX-100, 0.1 SDS, 0.1% Sodium deoxycholate), 1X phosphates, and protease inhibitor (Santa Cruz, Heidelberg, Germany). Acquired supernatant was centrifuged at 12,000× g for 10 min and transferred to new tubes. Protein concentration was detected using the protein assay kit BCA (Thermo Fisher Scientific, MA, USA). Following protein (50 µg) standing in 10% SDS-PAGE gel at 50 V for 30 min and 80 V for 3 h, the proteins were blotted to PVDF membrane at 70 V for 5 min (Bio-Rad Turbo Transfer System). After blocking in 1X TBST (12.1 gr Tris, pH 7.5, 70 gr NaCl, %0.1 Tween-20) containing 5% dry milk or 5% BSA, the primer monoclonal antibodies shown in Table 3 were administrated to the membrane overnight, which was followed by washing with 1 X TBS-T and incubation period with secondary antibodies HRP rabbit or mouse (1/10.000) for 60 min. The membrane was washed with 1 X TBS-T again. For band imaging, ECL substrate (EMD Millipore Corp., MA, USA) was used in the imaging system (LI-COR Odyssey Fc, NE, USA).

[5] = tested on: HeLa cells; assay: Acridine orange/ethidium bromide (AO/EB) staining; type: cell-based; details: HeLa, 10, 25 and 50 µM, 24 h
Procedure: After 24 h incubation of HeLa cells in 12 well-plates at 5 × 10^4 cell/mL, the compound E at concentrations of 10–50 μM was added on plates, and the cells were incubated at 37 °C for 24 h. The cells were then washed with PBS and incubated in a solution including 100 μL acridine orange (100 µg/mL) and ethidium bromide (100 µg/mL) at room temperature for 5 min. The morphological changes were investigated under fluorescent microscopy (Olympus CKX 51, DP73, USA).

[6] = tested on: HeLa cells; assay: Intracellular ROS detection (ROS Deep Red); type: cell-based; details: ROS red dye, 0–200 μM, 1 h
Procedure: Intracellular free radicals were measured using the Cellular Reactive Oxygen Species Detection Assay commercial kit (Abcam-186027, Cambridge, UK). In this kit, a fluorescence probe that is permeable to cells was used. When the probe reacts with ROS, it produces red fluorescence. According to the kit protocol, the cells were planted in black plates and incubated for 24 h. The compound E in PBS was administered at doses of 0–200 μM and incubated at 37 °C within an atmosphere of 5 % CO2 for 1 h (protected from light). After the compound E was poured out, the wells were filled with 100 µL of ROS Deep Red Working Solution, and then they were incubated at 37°C under an atmosphere of 5 % CO2 for 1 h. A fluorometry device (Spectramax M5, BioTek, VT, USA) Ex/Em: 650/675 nm (cut off: 665 nm) was used for the measuring.

[7] = tested on: HeLa cells; assay: BrdU ELISA proliferation assay; type: cell-based; details: 2.5 to 200 μM, 72 h
Procedure: The effects of compound E on the proliferation of HeLa cells were investigated by a commercial proliferation kit BrDU (BioVision, CA, USA) according to the protocols of the manufacturer. Twenty-four hours later, the cells were planted in 96 well plates (10^4 cell/mL), the medium was replaced, and the substance was administrated at a range from 2.5 to 200 μM for 72 h. Subsequently, the media were […], after which 100 µL 1X of BrdU reactive was added; then, they were placed in an incubator that contained % 5 CO2, 95% fresh air, at 37 °C, for 4 h. The medium was then removed, and 100 μL of fixative/denaturation solution was added and incubated for 30 min. A total of 100 µL 1X of the antibody solution BrdU was added, following 1-h incubation, the solution washed by 300 µL 1X of the washing solution two times. A volume of 100 μL 1X of anti-mouse HRP-linked antibody was added and incubated at room temperature for 1 h. Then, the cells were washed with 300 µL 1X of washing solution. Final incubation was performed by 100 μL of TMB substrate solution for 5 min, after which the stop solution was added; consequently, reading at a wavelength of 450 nm was performed.

With `NS(=O)(=O)c1ccc(CCNCc2cc(Br)ccc2O)cc1` [Compound E, 4-(2-((5-bromo-2-hydroxybenzyl)amino)ethyl) benzenesulphonamide] the “DNA damage (γ-H2AX level)” value [1] was “induced DNA damage in a dose-dependent manner”, the “Mitochondrial membrane potential (MMP)” value [2] was “disrupts mitochondrial membrane potential in HeLa cells” and the melting point was 189 to 191 °C. It also gave an IC50 ([3]; HT-29, 24 h) of 89.3 ± 12.2 µM, an IC50 ([3]; HT-29, 48 h) of 42.9 ± 16.3 µM and an IC50 ([3]; HT-29, 72 h) of 83.3 ± 17.4 µM. The CAIX protein level ([4]; 25 µM) was “effective for inhibiton of CAIX protein”, the “Cleaved PARP protein level” value ([4]; 10 and 25 µM, vs WT) was “increased PARP protein level” and the “Cleaved caspase 3, 8, and 9 protein levels” value ([4]; 10–25–50 μM, vs WT) was “increased”. The “Pro-caspase 3 protein level” value ([4]; 10–25–50 μM, vs WT) was “decreased”, the “Apoptotic morphology (AO/EB staining)” value [5] was “observed both markers of apoptosis in HeLa cells” and the “Intracellular ROS level” value [6] was “amount of ROS increased in a manner dose-dependent”. For the same molecule, the “Proliferation of HeLa cells (BrdU ELISA)” value [7] was “reduce the proliferation of HeLa cells in a dose-dependent manner”.
